Converted amounts (≈) assume the structure as drawn.
Assays:
Test in all cases: minimum inhibitory concentration (ETEST)
[1] = test system: Neisseria subflava/flavescens/perflava; details: population: general population, antibiotic use in previous 6 months: No
Description: (§1)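 Oropharyngeal Neisseria isolates from MSM and employees in Belgium were identified to species by MALDI-TOF MS. MICs of azithromycin, ceftriaxone and ciprofloxacin were determined by ETEST on GC agar after 24 h at 36.5 °C and 5-7% CO2, in mg/L. Values beyond the strip range are reported as >256 (azithromycin) or <0.016 (ceftriaxone); isolates that did not grow are NA.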

[2] = test system: Neisseria oralis; details: population: general population, antibiotic use in previous 6 months: No
Description: as §1

[3] = test system: Neisseria mucosa/macacae
Description: as §1

[4] = test system: Neisseria gonorrhoeae; details: isolate id (sample isolate): 19113052_3; population: MSM; antibiotic use in previous 6 months: No
Description: as §1

O=C(O)c1cn(C2CC2)c2cc(N3CCNCC3)c(F)cc2c1=O [ciprofloxacin]
Details | minimum inhibitory concentration [µg/mL]
[1], isolate id (sample isolate): Co000774_2 | 0.047 (≈ 0.142 µM)
[1], isolate id (sample isolate): Co000775_1 | 1 (≈ 3.02 µM)
[1], isolate id (sample isolate): Co000775_2 | 0.016 (≈ 0.0483 µM)
[1], isolate id (sample isolate): Co000775_3 | 0.25 (≈ 0.754 µM)
[1], isolate id (sample isolate): Co000776_2 | 0.047 (≈ 0.142 µM)
[1], isolate id (sample isolate): Co000776_3 | 0.047 (≈ 0.142 µM)
[1], isolate id (sample isolate): Co000777_1 | 1 (≈ 3.02 µM)
[1], isolate id (sample isolate): Co000777_2 | 0.5 (≈ 1.51 µM)
[1], isolate id (sample isolate): Co000777_4 | 2 (≈ 6.04 µM)
[1], isolate id (sample isolate): Co000778_1 | 0.012 (≈ 0.0362 µM)
[1], isolate id (sample isolate): Co000778_2 | > 32
[1], isolate id (sample isolate): Co000778_3 | 0.012 (≈ 0.0362 µM)
[1], isolate id (sample isolate): Co000780_4 | 0.75 (≈ 2.26 µM)
[1], isolate id (sample isolate): Co000781_1 | 0.5 (≈ 1.51 µM)
[1], isolate id (sample isolate): Co000781_3 | 2 (≈ 6.04 µM)
[1], isolate id (sample isolate): Co000781_4 | 0.75 (≈ 2.26 µM)
[1], isolate id (sample isolate): Co000782_2 | 0.016 (≈ 0.0483 µM)
[1], isolate id (sample isolate): Co000782_3 | 0.012 (≈ 0.0362 µM)
[1], isolate id (sample isolate): Co000782_4 | 0.023 (≈ 0.0694 µM)
[1], isolate id (sample isolate): Co000783_1 | 0.064 (≈ 0.193 µM)
[1], isolate id (sample isolate): Co000783_2 | 0.094 (≈ 0.284 µM)
[1], isolate id (sample isolate): Co000783_5 | 0.012 (≈ 0.0362 µM)
[1], isolate id (sample isolate): Co000784_1 | 0.023 (≈ 0.0694 µM)
[1], isolate id (sample isolate): Co000784_2 | 0.75 (≈ 2.26 µM)
[1], isolate id (sample isolate): Co000784_5 | 0.023 (≈ 0.0694 µM)
[1], isolate id (sample isolate): Co000785_1 | 0.016 (≈ 0.0483 µM)
[1], isolate id (sample isolate): Co000785_2 | 0.25 (≈ 0.754 µM)
[1], isolate id (sample isolate): Co000785_3 | 0.125 (≈ 0.377 µM)
[1], isolate id (sample isolate): Co000785_4 | 0.012 (≈ 0.0362 µM)
[1], isolate id (sample isolate): Co000786_1 | 0.047 (≈ 0.142 µM)
[1], isolate id (sample isolate): Co000786_2 | 0.016 (≈ 0.0483 µM)
[1], isolate id (sample isolate): Co000787_1 | > 32
[1], isolate id (sample isolate): Co000787_2 | 0.023 (≈ 0.0694 µM)
[1], isolate id (sample isolate): Co000787_4 | 0.023 (≈ 0.0694 µM)
[1], isolate id (sample isolate): Co000788_2 | 0.25 (≈ 0.754 µM)
[1], isolate id (sample isolate): Co000788_3 | 0.016 (≈ 0.0483 µM)
[1], isolate id (sample isolate): Co000788_5 | 0.19 (≈ 0.573 µM)
[1], isolate id (sample isolate): Co000789_1 | 0.016 (≈ 0.0483 µM)
[1], isolate id (sample isolate): Co000790_2 | 0.006 (≈ 0.0181 µM)
[1], isolate id (sample isolate): Co000790_4 | 0.006 (≈ 0.0181 µM)
[2], isolate id (sample isolate): Co000761_7 | 0.016 (≈ 0.0483 µM)
[2], isolate id (sample isolate): Co000763_1 | 0.012 (≈ 0.0362 µM)
[2], isolate id (sample isolate): Co000766_2 | 0.023 (≈ 0.0694 µM)
[2], isolate id (sample isolate): Co000770_1 | 0.016 (≈ 0.0483 µM)
[2], isolate id (sample isolate): Co000774_1 | 0.023 (≈ 0.0694 µM)
[2], isolate id (sample isolate): Co000776_1 | 0.016 (≈ 0.0483 µM)
[2], isolate id (sample isolate): Co000776_1.1 | 0.012 (≈ 0.0362 µM)
[2], isolate id (sample isolate): Co000779_2 | 0.012 (≈ 0.0362 µM)
[2], isolate id (sample isolate): Co000790_5 | 0.006 (≈ 0.0181 µM)

[3]
Details | minimum inhibitory concentration [µg/mL]
isolate id (sample isolate): 19041762_2, population: MSM, antibiotic use in previous 6 months: Yes | 0.016 (≈ 0.0483 µM)
isolate id (sample isolate): 19051904_1, population: MSM, antibiotic use in previous 6 months: Yes | 0.25 (≈ 0.754 µM)
isolate id (sample isolate): 19052394_2, population: MSM, antibiotic use in previous 6 months: Yes | 0.012 (≈ 0.0362 µM)
isolate id (sample isolate): 19062968_1, population: MSM, antibiotic use in previous 6 months: Yes | 6 (≈ 18.1 µM)
isolate id (sample isolate): 19081774_2, population: MSM, antibiotic use in previous 6 months: No | 0.016 (≈ 0.0483 µM)
isolate id (sample isolate): 19111422_4, population: MSM, antibiotic use in previous 6 months: No | 0.016 (≈ 0.0483 µM)
isolate id (sample isolate): 19111422_7, population: MSM, antibiotic use in previous 6 months: No | 0.016 (≈ 0.0483 µM)
isolate id (sample isolate): Co000770_5, population: general population, antibiotic use in previous 6 months: No | 0.023 (≈ 0.0694 µM)
isolate id (sample isolate): Co000771_4, population: general population, antibiotic use in previous 6 months: No | 0.016 (≈ 0.0483 µM)
isolate id (sample isolate): Co000772_3, population: general population, antibiotic use in previous 6 months: No | 0.006 (≈ 0.0181 µM)
isolate id (sample isolate): Co000773_3, population: general population, antibiotic use in previous 6 months: No | 0.006 (≈ 0.0181 µM)
isolate id (sample isolate): Co000779_1, population: general population, antibiotic use in previous 6 months: No | 0.032 (≈ 0.0966 µM)
isolate id (sample isolate): Co000783_3, population: general population, antibiotic use in previous 6 months: No | 0.012 (≈ 0.0362 µM)
isolate id (sample isolate): Co000783_6, population: general population, antibiotic use in previous 6 months: No | 0.023 (≈ 0.0694 µM)
isolate id (sample isolate): Co000787_3, population: general population, antibiotic use in previous 6 months: No | 0.064 (≈ 0.193 µM)
isolate id (sample isolate): Co000788_1, population: general population, antibiotic use in previous 6 months: No | 0.012 (≈ 0.0362 µM)
isolate id (sample isolate): Co000788_4, population: general population, antibiotic use in previous 6 months: No | 0.012 (≈ 0.0362 µM)

Details | minimum inhibitory concentration [µg/mL]
[4] | 2 (≈ 6.04 µM)
